According to ChEMBL document CHEMBL1140885, “Novel naphthalimide-amino acid conjugates with flexible leucine moiety as side chain: design, synthesis and potential antitumor activity” (Bioorg Med Chem, 2009):

Columns and labels:
HeLa = assay: Cytotoxicity against human HeLa cells after 48 hrs by MTT assay; format: functional, cell-based
A549 = assay: Cytotoxicity against human A549 cells after 72 hrs by SRB assay; format: functional, cell-based; settings: A549, 72 h
P388 = assay: Cytotoxicity against mouse P388 cells after 48 hrs by MTT assay; format: functional, cell-based; settings: P388, 48 h
HL-60 = assay: Cytotoxicity against human HL60 cells after 48 hrs by MTT assay; format: functional, cell-based; settings: HL-60, 48 h
MCF7 = assay: Cytotoxicity against human MCF7 cells after 48 hrs by MTT assay; format: functional, cell-based; settings: MCF7, 48 h
HCT-8 = assay: Cytotoxicity against human HCT8 cells after 48 hrs by MTT assay; format: functional, cell-based; settings: HCT-8, 48 h
A-375 = assay: Cytotoxicity against human A375 cells after 48 hrs by MTT assay; format: functional, cell-based; settings: A-375, 48 h
Albumin = Albumin (Bos taurus, UniProt P02769); assay: Binding affinity to bovine serum albumin at 10 uM after 15 mins by spectrophotometric titration; format: ADME; settings: cattle, isolated protein, 0.25 h
Sequence of Albumin (P02769 whole entry): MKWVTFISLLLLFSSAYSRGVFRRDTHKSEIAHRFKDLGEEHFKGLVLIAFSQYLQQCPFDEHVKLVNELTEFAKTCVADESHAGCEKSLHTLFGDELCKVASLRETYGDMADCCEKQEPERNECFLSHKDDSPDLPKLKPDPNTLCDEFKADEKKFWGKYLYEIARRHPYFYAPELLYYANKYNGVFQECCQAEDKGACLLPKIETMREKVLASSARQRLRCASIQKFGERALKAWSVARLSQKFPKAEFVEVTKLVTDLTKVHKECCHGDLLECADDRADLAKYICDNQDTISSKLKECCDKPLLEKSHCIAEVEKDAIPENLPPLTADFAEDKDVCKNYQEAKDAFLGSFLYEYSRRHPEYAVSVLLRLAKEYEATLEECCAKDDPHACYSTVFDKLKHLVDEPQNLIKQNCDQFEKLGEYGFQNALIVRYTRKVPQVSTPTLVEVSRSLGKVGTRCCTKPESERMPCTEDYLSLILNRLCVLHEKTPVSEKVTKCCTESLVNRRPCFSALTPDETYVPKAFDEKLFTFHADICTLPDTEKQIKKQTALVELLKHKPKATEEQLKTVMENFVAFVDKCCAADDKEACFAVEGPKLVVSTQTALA

DNA [1] = assay: Binding affinity to calf thymys DNA assessed as increase in viscosity; format: nucleic-acid assay; settings: Bos taurus
DNA [2] = assay: Binding affinity to calf thymus DNA by fluorescence titration; format: nucleic-acid assay; settings: Bos taurus

`CC(C)C[C@@H](C(=O)Nc1ccc(S(=O)(=O)c2ccc(N)cc2)cc1)N1C(=O)c2cccc3c(NCCSc4ccccc4)ccc(c23)C1=O` showed an IC50 (HeLa) of over 50 µM, an IC50 (A549) of over 50 µM and an IC50 (P388) of over 50 µM. For the same molecule, the IC50 (HL-60) was over 50 µM, the IC50 (MCF7) was 24.6 µM and the IC50 (HCT-8) was over 50 µM. The IC50 (A-375) was over 50 µM and the Activity (Albumin) was “Active”.
In the case of `COc1cc(-c2ccc(NC(=O)[C@H](CC(C)C)N3C(=O)c4cccc5c(NCCSc6ccccc6)ccc(c45)C3=O)c(OC)c2)ccc1N`, the IC50 (HeLa) is reported as over 50 µM, the IC50 (A549) is reported as over 50 µM and the IC50 (P388) is reported as over 50 µM. The IC50 (HL-60) was over 50 µM, the IC50 (MCF7) was 9.45 µM and the IC50 (HCT-8) was over 50 µM. The IC50 (A-375) was over 50 µM and the Activity (Albumin) was “Active”.
`CC(C)C[C@@H](C(=O)Nc1ccc(S(N)(=O)=O)cc1)N1C(=O)c2cccc3c(NCCSc4ccccc4)ccc(c23)C1=O` gave an IC50 (HeLa) of over 50 µM, an IC50 (A549) of over 50 µM and an IC50 (P388) of over 50 µM. The IC50 (HL-60) was over 50 µM, the IC50 (MCF7) was 12.6 µM and the IC50 (HCT-8) was over 50 µM. The IC50 (A-375) was over 50 µM and the Activity (Albumin) was “Active”.
Molecule `CC(C)C[C@@H](C(=O)Nc1ccc(S(=O)(=O)c2ccc(N)cc2)cc1)N1C(=O)c2cccc3c(NCCN(C)C)ccc(c23)C1=O` has an IC50 (HeLa) of over 50 µM, an IC50 (A549) of 17.2 µM and an IC50 (P388) of over 50 µM. The IC50 (HL-60) was over 50 µM, the IC50 (MCF7) was 8.64 µM and the IC50 (HCT-8) was over 50 µM. It also gave an IC50 (A-375) of over 50 µM.
In the case of `CC(C)C[C@@H](C(=O)Nc1ccc(S(N)(=O)=O)cc1)N1C(=O)c2cccc3c(NCCN(C)C)ccc(c23)C1=O`, the IC50 (HeLa) is reported as 8.09 µM, the IC50 (A549) is reported as over 50 µM and the IC50 (P388) is reported as 7.23 µM. It also gave an IC50 (HL-60) of 17.8 µM, an IC50 (MCF7) of 8.65 µM and an IC50 (HCT-8) of over 50 µM. For the same molecule, the IC50 (A-375) was 6.6 µM, the Activity (DNA [1]) was “Dose-dependent effect” and the Ka (DNA [2]) was 4.92 ×10⁴ /M.
For `COc1cc(-c2ccc(NC(=O)[C@H](CC(C)C)N3C(=O)c4cccc5c(NCCN(C)C)ccc(c45)C3=O)c(OC)c2)ccc1N`, the IC50 (HeLa) was 6.74 µM, the IC50 (A549) was 25.1 µM and the IC50 (P388) was 7.67 µM. It also gave an IC50 (HL-60) of 22.8 µM, an IC50 (MCF7) of 15 µM and an IC50 (HCT-8) of over 50 µM. For the same molecule, the IC50 (A-375) was 6.51 µM.
